Assay results from patent US12371411B2, “Water and thermal treatment of purified 2,5-furandicarboxylic acid” (Furanix Technologies B.V., priority 2019, dated 2025).

Assay: Solubility of FDCA for a given temperature and solvent
Assay type: physicochemical
Conditions: for Solubility at T, wt % in solvent / Solubility at temp., wt % in solvent: estimated FDCA solubility
From the text: The skilled person can adjust the thermal treatment conditions to the required degree of dissolution, wherein the following table can be used that lists values for the solubility of FDCA at a given temperature depending on the solvent composition employed. […] Intermediate values can be obtained by interpolation.
For a better understanding, the estimated FDCA solubility in the given solvent at the process temperature is provided as well.

Solubility of FDCA (HAc:Water 0:100 by weight, 140° C.): 7.0 wt % | Solubility of FDCA (HAc:Water 0:100 by weight, 150° C.): 9.2 wt % | Solubility of FDCA (HAc:Water 0:100 by weight, 160° C.): 11.7 wt % | Solubility of FDCA (HAc:Water 0:100 by weight, 170° C.): 14.8 wt % | Solubility of FDCA (HAc:Water 0:100 by weight, 180° C.): 18.4 wt % | Solubility of FDCA (HAc:Water 0:100 by weight, 190° C.): 22.4 wt % | Solubility of FDCA (HAc:Water 0:100 by weight, 200° C.): 26.8 wt % | Solubility of FDCA (HAc:Water 10:90 by weight, 140° C.): 7.7 wt % | Solubility of FDCA (HAc:Water 10:90 by weight, 150° C.): 9.9 wt % | Solubility of FDCA (HAc:Water 10:90 by weight, 160° C.): 12.6 wt % | Solubility of FDCA (HAc:Water 10:90 by weight, 170° C.): 15.6 wt % | Solubility of FDCA (HAc:Water 10:90 by weight, 180° C.): 19.2 wt % | Solubility of FDCA (HAc:Water 10:90 by weight, 190° C.): 23.1 wt % | Solubility of FDCA (HAc:Water 10:90 by weight, 200° C.): 27.4 wt % | Solubility of FDCA (HAc:Water 20:80 by weight, 140° C.): 8.3 wt % | Solubility of FDCA (HAc:Water 20:80 by weight, 150° C.): 10.6 wt % | Solubility of FDCA (HAc:Water 20:80 by weight, 160° C.): 13.3 wt % | Solubility of FDCA (HAc:Water 20:80 by weight, 170° C.): 16.3 wt % | Solubility of FDCA (HAc:Water 20:80 by weight, 180° C.): 19.8 wt % | Solubility of FDCA (HAc:Water 20:80 by weight, 190° C.): 23.7 wt % | Solubility of FDCA (HAc:Water 20:80 by weight, 200° C.): 27.8 wt % | Solubility of FDCA (HAc:Water 30:70 by weight, 140° C.): 8.9 wt % | Solubility of FDCA (HAc:Water 30:70 by weight, 150° C.): 11.1 wt % | Solubility of FDCA (HAc:Water 30:70 by weight, 160° C.): 13.8 wt % | Solubility of FDCA (HAc:Water 30:70 by weight, 170° C.): 16.8 wt % | Solubility of FDCA (HAc:Water 30:70 by weight, 180° C.): 20.1 wt % | Solubility of FDCA (HAc:Water 30:70 by weight, 190° C.): 23.8 wt % | Solubility of FDCA (HAc:Water 30:70 by weight, 200° C.): 27.8 wt % | Solubility of FDCA (HAc:Water 40:60 by weight, 140° C.): 9.1 wt % | Solubility of FDCA (HAc:Water 40:60 by weight, 150° C.): 11.3 wt % | Solubility of FDCA (HAc:Water 40:60 by weight, 160° C.): 13.9 wt % | Solubility of FDCA (HAc:Water 40:60 by weight, 170° C.): 16.7 wt % | Solubility of FDCA (HAc:Water 40:60 by weight, 180° C.): 19.9 wt % | Solubility of FDCA (HAc:Water 40:60 by weight, 190° C.): 23.4 wt % | Solubility of FDCA (HAc:Water 40:60 by weight, 200° C.): 27.1 wt % | Solubility of FDCA (HAc:Water 50:50 by weight, 140° C.): 9.0 wt % | Solubility of FDCA (HAc:Water 50:50 by weight, 150° C.): 11.0 wt % | Solubility of FDCA (HAc:Water 50:50 by weight, 160° C.): 13.4 wt % | Solubility of FDCA (HAc:Water 50:50 by weight, 170° C.): 16.0 wt % | Solubility of FDCA (HAc:Water 50:50 by weight, 180° C.): 19.0 wt % | Solubility of FDCA (HAc:Water 50:50 by weight, 190° C.): 22.1 wt % | Solubility of FDCA (HAc:Water 50:50 by weight, 200° C.): 25.6 wt % | Solubility of FDCA (HAc:Water 60:40 by weight, 140° C.): 8.2 wt % | Solubility of FDCA (HAc:Water 60:40 by weight, 150° C.): 10.0 wt % | Solubility of FDCA (HAc:Water 60:40 by weight, 160° C.): 12.1 wt % | Solubility of FDCA (HAc:Water 60:40 by weight, 170° C.): 14.5 wt % | Solubility of FDCA (HAc:Water 60:40 by weight, 180° C.): 17.0 wt % | Solubility of FDCA (HAc:Water 60:40 by weight, 190° C.): 19.9 wt % | Solubility of FDCA (HAc:Water 60:40 by weight, 200° C.): 22.9 wt % | Solubility of FDCA (HAc:Water 70:30 by weight, 140° C.): 6.8 wt % | Solubility of FDCA (HAc:Water 70:30 by weight, 150° C.): 8.3 wt % | Solubility of FDCA (HAc:Water 70:30 by weight, 160° C.): 10.0 wt % | Solubility of FDCA (HAc:Water 70:30 by weight, 170° C.): 12.0 wt % | Solubility of FDCA (HAc:Water 70:30 by weight, 180° C.): 14.2 wt % | Solubility of FDCA (HAc:Water 70:30 by weight, 190° C.): 16.6 wt % | Solubility of FDCA (HAc:Water 70:30 by weight, 200° C.): 19.2 wt % | Solubility of FDCA (HAc:Water 80:20 by weight, 140° C.): 4.9 wt % | Solubility of FDCA (HAc:Water 80:20 by weight, 150° C.): 6.1 wt % | Solubility of FDCA (HAc:Water 80:20 by weight, 160° C.): 7.5 wt % | Solubility of FDCA (HAc:Water 80:20 by weight, 170° C.): 9.1 wt % | Solubility of FDCA (HAc:Water 80:20 by weight, 180° C.): 10.9 wt % | Solubility of FDCA (HAc:Water 80:20 by weight, 190° C.): 12.9 wt % | Solubility of FDCA (HAc:Water 80:20 by weight, 200° C.): 15.1 wt % | Solubility of FDCA (HAc:Water 90:10 by weight, 140° C.): 3.5 wt % | Solubility of FDCA (HAc:Water 90:10 by weight, 150° C.): 4.5 wt % | Solubility of FDCA (HAc:Water 90:10 by weight, 160° C.): 5.6 wt % | Solubility of FDCA (HAc:Water 90:10 by weight, 170° C.): 7.0 wt % | Solubility of FDCA (HAc:Water 90:10 by weight, 180° C.): 8.7 wt % | Solubility of FDCA (HAc:Water 90:10 by weight, 190° C.): 10.6 wt % | Solubility of FDCA (HAc:Water 90:10 by weight, 200° C.): 12.8 wt % | Solubility of FDCA (HAc:Water 95:5 by weight, 140° C.): 3.3 wt % | Solubility of FDCA (HAc:Water 95:5 by weight, 150° C.): 4.4 wt % | Solubility of FDCA (HAc:Water 95:5 by weight, 160° C.): 5.7 wt % | Solubility of FDCA (HAc:Water 95:5 by weight, 170° C.): 7.3 wt % | Solubility of FDCA (HAc:Water 95:5 by weight, 180° C.): 9.3 wt % | Solubility of FDCA (HAc:Water 95:5 by weight, 190° C.): 11.6 wt % | Solubility of FDCA (HAc:Water 95:5 by weight, 200° C.): 14.3 wt % | Solubility at T, wt % in solvent (HAc:Water 0:100, 130° C. (test Comp. 4)): 5.3 wt % in solvent | Solubility at temp., wt % in solvent (HAc:Water 0:100, 180° C. (test Ex. 3)): 18.4 wt % in solvent | Solubility at T, wt % in solvent (HAc:Water 70:30, 125° C. (test Comp. 3)): 6.1 wt % in solvent | Solubility at temp., wt % in solvent (HAc:Water 70:30, 180° C. (tests Ex. 1, Ex. 2)): 14.2 wt % in solvent
Structure (SMILES): O=C(O)c1ccc(C(=O)O)o1 [FDCA, 2,5-Furandicarboxylic acid]
